EP0332679B1, “ANTIVIRAL CO[…] […] AND METHOD FOR TREATING […]” (NEW YORK UNIVERSITY, priority 1987, dated 1989)
Where “and” joins values, the source holds several entries; their conditions need not be identical. Equal values may be shown once. Entries after “also recorded” stand apart in the source; their conditions may differ.

Experiments:
[1] = test system: Radiation Leukemia Virus (RadLV); test: H-2 antigen expression in thymocytes (FACS) after intrathymic inoculation of radiation leukemia virus; format: in vivo, B10.T(6R) mice
From the text: The intrathymic inoculation of murine radiation leukemia virus in susceptible strains of mice results in the malignant transformation of the thymocytes and the development of overt leukemia (as described in Meruelo, D. et al J. Exp. Med. 147: 470-487, 1978). […] Among the early events which follow the viral infection in some mouse strains is a dramatic increase in the cell surface expression of class I H-2 antigens. This increase is then followed by a reduction in the expression of these antigens after the malignant transformation and subsequent development of leukemia. The changes in H-2 antigen expression have been utilized to monitor viral infectivity and to determine the effects of Hy and Ps on the level of infectivity of this virus.
Murine radiation leukemia virus (RadLV) was inoculated intrathymically into B10.T(6R) mice as described in Meruelo et al (supra). Groups of six mice were treated 24 h later with 30 µg per mouse of compound Hy administered intraperitoneally in isotonic saline solution. The mice were sacrificed ten days later and the expression of Class I H-2 antigens determined by analysis with a fluorescence activated cell sorter (Ortho Cytofluorograph Model 50H, Ortho Diagnostic Systems, Westwood, MA) (FACS), using X-56 anti-H-2D^d mouse monospecific antibodies (as described in Meruelo, et al supra; similar antibodies are available as ATCC No. HB75, American Type Culture Collection, Rockville, MD).

[2] = test system: Friend Leukemia Virus (FV); test: Liver function (serum liver-associated proteins) of FV infected mice with or without compound; format: in vivo, BALB/c mice; settings: for CHOLEST: pooled serum of 4 mice
From the text: BALB/c mice were inoculated with FV at a concentration of 2x10⁵ FFU. Each group of animals contained 4 mice, and analyses were done in pooled aliquots.
In Table 3, BU = Total Bilirubin, AP = Alkaline phosphatase, LDH = Lactate dehydrogenase, SGOT = Serum glutamyl aminotransferase, SGPT = […], and GGT = Gamma-glutamyl-transpeptidase.

[3] = test system: Friend Leukemia Virus (FV); test: Splenomegaly after simultaneous intravenous co-administration of compound with FV; format: in vivo, mice; settings: for Spleen Weights: individual mice
Protocol: A different experimental design was also tested involving the simultaneous intravenous co-administration of Ps with the FV complex. In this case, the viral preparation was mixed with Ps at various concentrations and the mixture was injected into the mouse tail vein in a final volume of 0.5ml. The mice were sacrificed ten days later, the spleens weighed and the level of inhibition of splenomegaly subsequently determined.

[4] = test system: Friend Leukemia Virus (FV); test: Splenomegaly after Friend Leukemia Virus infection, compound given intraperitoneally 24 h after intravenous virus; format: in vivo, BALB/c mice; settings: for Spleen weight: individual mice
From the text: Friend Leukemia virus (FV) an aggressive retrovirus induces an acute erythroleukemia in sensitive strains of mice such as BALB/c and NIH SWISS mice (as described in Friend, C. J. Exp. Med. 105: 307-324, 1957; Friend, C. et al Nat. Cancer Inst. Monogr. 22: 505-522, 1966; Friend, C. et al Proc. Natl. Acad. Sci. U.S.A. 68: 378-383, 1971). The malignant transformation is the result of the combined activities of the spleen focus forming virus (SFFV) and the ecotropic murine Friend Leukemia helper virus (F-MuLv). The acute erythroleukemia is characterized by hepatosplenomegaly (a marked increase in the size of the spleen and liver) and a severe anemia.
Friend Leukemia virus was prepared by homogenizing the enlarged spleen of a mouse previously infected with FV, 10 days after intravenous virus injection. The spleen was homogenized in phosphate buffered saline in a volume equal to 10 times the weight of the isolated spleen.
The effects of Hy and Ps on the increase in spleen size (splenomegaly) of BALB/c mice (Jackson Labs, Bar Harbor, ME) was examined. […] The animals were then sacrificed ten days later and their spleens weighed.

[5] = in vivo; cited from earlier work
[6] = in vivo; cited from earlier work; remark: listed apart in the source
[7] = IPFVIVPS: FV intraperitoneal, Ps intravenous, pooled serum
[8] = IVFVIPPS: FV intravenous, Ps intraperitoneal, pooled serum
[9] = FV 2x10^5 FFU, 2 injections 80 μg/mouse
[10] = FV 2x10^5 FFU, single i.p. injection 80 μg/mouse
[11] = FV 10^6 FFU, 2 injections 80 µg/mouse
[12] = FV 10^6 FFU, single i.p. injection 80 µg/mouse

SMILES: Cc1cc(O)c2c(=O)c3c(O)cc(O)c4c5c(O)cc(O)c6c(=O)c7c(O)cc(CO)c8c1c2c(c34)c(c65)c78 [Ps, pseudohypericin]
- effect on RadLV-induced increase in H-2 expression (in words) ([1]; 30 µg per mouse i.p. 24 h after viral inoculation): No effects on H-2 expression
- mean fluorescent intensity in fluorescent units ([1]; individual mice, 30 μg/mouse i.p. 24 h after intrathymic RadLV, thymocytes ten days later): (713.3) fluorescent units; also recorded: (639) fluorescent units
- % of cells stained with antibody ([1]; individual mice, 30 μg/mouse i.p. 24 h after intrathymic RadLV, thymocytes ten days later, anti-H-2D^d antibody): 97.4% and 94.3%
- CHOLEST ([2]; IPFVIVPS: FV intraperitoneal (2x10^5 FFU), Ps intravenous): 137 mg/dL
- ALBUMIN [2, 7]: 3.2 g/dL
- AP (Alkaline phosphatase) [2, 7]: 200 IU/l
- BU (Total Bilirubin) [2, 7]: 0.3 mg/dL
- GGT (Gamma-glutamyl-transpeptidase) [2, 7]: 4 miu/ml
- LDH (Lactate dehydrogenase) [2, 7]: 2305 IU/l
- SGOT [2, 7]: 244 IU/l
- SGPT [2, 7]: 135 IU/l
- Total PROTEIN [2, 7]: 5.5 g/dL
- CHOLEST ([2]; IVFVIPPS: FV intravenous (2x10^5 FFU), Ps intraperitoneal): 109 mg/dL
- ALBUMIN [2, 8]: 3.4 g/dL
- AP (Alkaline phosphatase) [2, 8]: 226 IU/l
- BU (Total Bilirubin) [2, 8]: 0.1 mg/dL
- LDH (Lactate dehydrogenase) [2, 8]: 3303 IU/l
- SGOT [2, 8]: 213 IU/l
- SGPT [2, 8]: 99 IU/l
- Total PROTEIN [2, 8]: 5.7 g/dL
- % inhibition (splenomegaly) ([3]; 5mcg per mouse i.v. with FV): 75.44%
- Spleen Weights, mean (x̄) ([3]; 5mcg per mouse i.v. with FV): x̄=0.3862 ±0.0353 grams
- % inhibition (splenomegaly) ([3]; 5mcg per mouse i.v. with FV, listed as PS): = 75.44%
- % inhibition (splenomegaly) ([3]; 20 mcg per mouse i.v. with FV): 100%
- Spleen Weights, mean (x̄) ([3]; 20 mcg per mouse i.v. with FV): x̄=0.1614 ±0.0253 grams
- % inhibition (splenomegaly) ([3]; 20 mcg per mouse i.v. with FV, listed as PS): 100%
- % inhibition (splenomegaly) ([3]; 50mcg per mouse i.v. with FV): 100%
- Spleen Weights, mean (x̄) ([3]; 50mcg per mouse i.v. with FV): x̄=0.1572 ±0.0217 grams
- % inhibition (splenomegaly) ([3]; 50mcg per mouse i.v. with FV, listed as PS): 100%
- Spleen Weights ([3]; 5mcg per mouse i.v. mixed with FV, sacrificed ten days later): 0.3425 grams and 0.3766 grams and 0.4005 grams and 0.4255 grams
- Spleen Weights ([3]; 20 mcg per mouse i.v. mixed with FV): 0.1655 grams and 0.1426 grams and 0.1433 grams and 0.1966 grams
- Spleen Weights ([3]; 50mcg per mouse i.v. mixed with FV): 0.1830 grams and 0.1674 grams and 0.1422 grams and 0.1365 grams
- % Inhib (splenomegaly) [4, 9]: 81.7%
- Net change from control (spleen weight) [4, 9]: Net change from control=0.1292
- Spleen weight, mean (x̄) [4, 9]: x̄=0.3138±0.1197 g
- % Inhib (splenomegaly) ([4]; FV 2x10^5 FFU, 2 injections 80 μg/mouse, listed as PS): % Inhib=81.15
- % Inhib (splenomegaly) [4, 10]: 89.6%
- Net change from control (spleen weight) [4, 10]: Net change from control=0.0714
- Spleen weight, mean (x̄) [4, 10]: x̄=0.2560±0.0723 g
- % Inhib (splenomegaly) ([4]; FV 2x10^5 FFU, single i.p. injection 80 μg/mouse, listed as PS): % Inhib=89.58
- % Inhib (splenomegaly) [4, 11]: 90.7%
- Net change from control (spleen weight) [4, 11]: Net change from control=0.0841
- Spleen weight, mean (x̄) [4, 11]: x̄=0.2687±0.0621 g
- % Inhib (splenomegaly) ([4]; FV 10^6 FFU, 2 injections 80 µg/mouse, listed as PS): % Inhib=90.70
- % Inhib (splenomegaly) [4, 12]: 93.8%
- Net change from control (spleen weight) [4, 12]: Net change from control=0.0558
- Spleen weight, mean (x̄) [4, 12]: x̄=0.2404±0.0482 g
- % Inhib (splenomegaly) ([4]; FV 10^6 FFU, single i.p. injection 80 µg/mouse, listed as PS): % Inhib=93.82
- Spleen weight [4, 9]: 0.2722 Spleen weight (g ) and 0.2438 Spleen weight (g ) and 0.4924 Spleen weight (g ) and 0.2469 Spleen weight (g )
- Spleen weight [4, 10]: 0.2208 Spleen weight (g ) and 0.1791 Spleen weight (g ) and 0.3457 Spleen weight (g ) and 0.2784 Spleen weight (g )
- Spleen weight ([4]; FV 10^6 FFU i.v., 2 daily consecutive i.p. injections of 80 µg/mouse): 0.2457 Spleen weight (g ) and 0.3400 Spleen weight (g ) and 0.2938 Spleen weight (g ) and 0.1956 Spleen weight (g )
- Spleen weight ([4]; FV 10^6 FFU i.v., single i.p. injection 80 µg/mouse 24 h later, sacrificed ten days later): 0.2831 Spleen weight (g ) and 0.2761 Spleen weight (g ) and 0.2215 Spleen weight (g ) and 0.1810 Spleen weight (g )

SMILES: Cc1cc(O)c2c(=O)c3c(O)cc(O)c4c5c(O)cc(O)c6c(=O)c7c(O)cc(C)c8c1c2c(c34)c(c78)c65 [Hy, hypericin]
- effect on the human organism (in words) [5]: tonic and tranquilizing effect
- % inhibition (of virus-induced increase in H-2 antigen expression) ([1]; mouse, in vivo): (1) % inhibition = 100-[(Treated 30 μg) - (Base Line) / Virus Induced - Base Line] x100=82%
- % of cells stained with antibody ([1]; mouse, in vivo, ip): 76.7% and 77.2% and 96.3% and 84.8% and 54.0% and 97.8%
- % of cells stained with antibody, mean (x̄) ([1]; mouse, in vivo, ip): x̄=81.13%
- effect on RadLV-induced increase in H-2 expression (in words) ([1]; mouse, in vivo, ip): significant inhibition in the increase in H-2 expression in four of the six mice tested
- photosensitivity (in words) [6]: produce photosensitivity upon ingestion
